Test results as given in PubChem BioAssay AID248 (DTP/NCI, 2004).
Where “and” joins values, the source holds several entries; their conditions need not be identical. Identical values can stand only once. Toxic doses and inconclusive results are not listed. Cut-off read from the data, not from the text of the source: active = T/C of 150% or more; inactive = T/C below 125%.

Tested on: L1210 leukemia ip in BDF1 mice, survival T/C
Assay: NCI In Vivo Anticancer Drug Screen. Data for tumor model L1210 Leukemia (intraperitoneal) in B6D2F1 (BDF1) mice
Conditions: endpoint: mean survival time, higher = longer survival
How it was run: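 Transplanted-tumor mice were given test agent; controls received vehicle only. Survival readings from the two groups were divided (treated over control).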

[1] = dose: 25.0 mg/kg/injection, schedule: Q01DX009 (ip), vehicle: saline with Tween-80
[2] = dose: 50.0 mg/kg/injection, schedule: Q01DX009 (ip), vehicle: saline with Tween-80
[3] = dose: 100.0 mg/kg/injection, schedule: Q01DX009 (ip), vehicle: saline with Tween-80
[4] = dose: 100.0 mg/kg/injection, schedule: Q04DX003 (ip), vehicle: saline with Tween-80
[5] = dose: 12.5 mg/kg/injection, schedule: Q01DX009 (ip), vehicle: saline with Tween-80
[6] = dose: 5.0 mg/kg/injection, schedule: Q01DX001 (ip), vehicle: saline
[7] = dose: 10.0 mg/kg/injection, schedule: Q01DX001 (ip), vehicle: saline
[8] = dose: 20.0 mg/kg/injection, schedule: Q01DX001 (ip), vehicle: saline
[9] = dose: 40.0 mg/kg/injection, schedule: Q01DX001 (ip), vehicle: saline

Measured: T/C

Nc1ncnc(N)c1NC(=O)c1cccc(F)c1
inactive: dose: 100.0 mg/kg/injection, schedule: Q01DX001 (ip), vehicle: saline with Tween-80 106 % of control | dose: 200.0 mg/kg/injection, schedule: Q01DX001 (ip), vehicle: saline with Tween-80 101 % of control | dose: 400.0 mg/kg/injection, schedule: Q01DX001 (ip), vehicle: saline with Tween-80 102 % of control

O=S(=O)(OCC1CO1)c1ccc(Cl)c(Cl)c1 (centres undefined)
inactive: dose: 100.0 mg/kg/injection, schedule: Q01DX008 (ip), vehicle: Klucel (hydroxypropylcellulose) (HPC) 96 % of control | dose: 200.0 mg/kg/injection, schedule: Q01DX008 (ip), vehicle: Klucel (hydroxypropylcellulose) (HPC) 102 % of control | dose: 400.0 mg/kg/injection, schedule: Q01DX008 (ip), vehicle: Klucel (hydroxypropylcellulose) (HPC) 106 % of control

[N-]=[N+]=CC(=O)OCC(N)C(=O)O (centres undefined)
inactive: dose: 100.0 mg/kg/injection, schedule: Q01DX009 (ip), vehicle: water 103 % of control | dose: 200.0 mg/kg/injection, schedule: Q01DX009 (ip), vehicle: water 105 % of control | dose: 400.0 mg/kg/injection, schedule: Q01DX009 (ip), vehicle: water 89 % of control

Cc1cc(C)n(/N=C/c2ccc([N+](=O)[O-])o2)c(=O)c1C#N
inactive: dose: 100.0 mg/kg/injection, schedule: Q01DX001 (ip), vehicle: carboxymethylcellulose (CMC) 88 % of control | dose: 200.0 mg/kg/injection, schedule: Q01DX001 (ip), vehicle: carboxymethylcellulose (CMC) 91 % of control | dose: 400.0 mg/kg/injection, schedule: Q01DX001 (ip), vehicle: carboxymethylcellulose (CMC) 88 % of control

CC(=O)Oc1cc(C)c(OC(C)=O)c(C)c1C
inactive: [1] 108 % of control | dose: 25.0 mg/kg/injection, schedule: Q04DX003 (ip), vehicle: saline with Tween-80 92 % of control | [2] 103 % of control | dose: 50.0 mg/kg/injection, schedule: Q04DX003 (ip), vehicle: saline with Tween-80 94 % of control | [3] 96 % of control | [4] 100 % of control and 103 % of control

COc1ccc(OC)c2c1C=CCC=C2
inactive: [2] 95 % of control | [3] 88 % of control | dose: 100.0 mg/kg/injection, schedule: Q04DX003 (ip), vehicle: acetone 117 % of control | dose: 200.0 mg/kg/injection, schedule: Q01DX009 (ip), vehicle: saline with Tween-80 102 % of control | dose: 200.0 mg/kg/injection, schedule: Q04DX003 (ip), vehicle: acetone 94 % of control

CC(=O)Nc1ccc(/C=N/NC(=O)CNC(=O)Nc2cccc(Cl)c2)cc1
inactive: [5] 95 % of control | [1] 95 % of control | [2] 87 % of control and 91 % of control

CC(C)CCCC(C)C1CCC2C3CC(=O)OC4CC(Br)CCC4(C)C3CCC12C (centres undefined)
inactive: [4] 101 % of control | dose: 200.0 mg/kg/injection, schedule: Q04DX003 (ip), vehicle: saline with Tween-80 101 % of control | dose: 400.0 mg/kg/injection, schedule: Q04DX003 (ip), vehicle: saline with Tween-80 102 % of control

COCNC(=S)N/N=C/c1ccccn1
inactive: [5] 124 % of control | [2] 124 % of control

O=C(O)CC(NCc1ccccc1)C1CCCCC1 (centres undefined)
inactive: dose: 100.0 mg/kg/injection, schedule: Q01DX001 (ip), vehicle: Klucel (hydroxypropylcellulose) (HPC) 95 % of control | dose: 200.0 mg/kg/injection, schedule: Q01DX001 (ip), vehicle: Klucel (hydroxypropylcellulose) (HPC) 101 % of control | dose: 400.0 mg/kg/injection, schedule: Q01DX001 (ip), vehicle: Klucel (hydroxypropylcellulose) (HPC) 98 % of control

Oc1ccc2ccccc2c1N=Nc1cc[c]([Hg][Cl])cc1
inactive: [6] 91 % of control | [7] 107 % of control | [8] 96 % of control | [9] 100 % of control

CN(C)c1ncnc2c1c(Br)cn2C1OC(CO)C(O)C1O (centres undefined)
inactive: [6] 101 % of control | [7] 102 % of control | [8] 104 % of control | [9] 108 % of control

Clc1c2ccccc2c(Cl)c2ccccc12
inactive: dose: 3.1 mg/kg/injection, schedule: Q04DX002 (ip), vehicle: Klucel (hydroxypropylcellulose) (HPC) 89 % of control | dose: 6.25 mg/kg/injection, schedule: Q04DX002 (ip), vehicle: Klucel (hydroxypropylcellulose) (HPC) 100 % of control | dose: 12.5 mg/kg/injection, schedule: Q04DX002 (ip), vehicle: Klucel (hydroxypropylcellulose) (HPC) 93 % of control | dose: 25.0 mg/kg/injection, schedule: Q04DX002 (ip), vehicle: Klucel (hydroxypropylcellulose) (HPC) 90 % of control

Cc1cccc(OS(=O)(=O)c2ccccc2[N+](=O)[O-])c1
inactive: dose: 100.0 mg/kg/injection, schedule: Q01DX009 (ip), vehicle: saline sonified 103 % of control | dose: 100.0 mg/kg/injection, schedule: Q04DX003 (ip), vehicle: Klucel (hydroxypropylcellulose) (HPC) 93 % of control | dose: 200.0 mg/kg/injection, schedule: Q04DX003 (ip), vehicle: Klucel (hydroxypropylcellulose) (HPC) 96 % of control | dose: 400.0 mg/kg/injection, schedule: Q01DX009 (ip), vehicle: saline sonified 111 % of control | dose: 400.0 mg/kg/injection, schedule: Q04DX003 (ip), vehicle: Klucel (hydroxypropylcellulose) (HPC) 90 % of control

CCCC1(CCC)CN(C)C1=O
inactive: dose: 12.5 mg/kg/injection, schedule: Q01DX009 (ip), vehicle: saline 97 % of control | dose: 25.0 mg/kg/injection, schedule: Q01DX009 (ip), vehicle: saline 88 % of control | dose: 25.0 mg/kg/injection, schedule: Q04DX003 (ip), vehicle: saline 104 % of control | dose: 50.0 mg/kg/injection, schedule: Q01DX009 (ip), vehicle: saline 100 % of control | dose: 50.0 mg/kg/injection, schedule: Q04DX003 (ip), vehicle: saline 98 % of control | dose: 100.0 mg/kg/injection, schedule: Q01DX009 (ip), vehicle: saline 102 % of control | dose: 100.0 mg/kg/injection, schedule: Q04DX003 (ip), vehicle: saline 98 % of control | dose: 200.0 mg/kg/injection, schedule: Q01DX009 (ip), vehicle: saline 102 % of control | dose: 200.0 mg/kg/injection, schedule: Q04DX003 (ip), vehicle: saline 98 % of control

COc1ccc(OC)c(NC(=S)NNC(=S)NNc2ccccc2)c1
inactive: dose: 100.0 mg/kg/injection, schedule: Q04DX002 (ip), vehicle: Klucel (hydroxypropylcellulose) (HPC) 101 % of control | dose: 200.0 mg/kg/injection, schedule: Q04DX002 (ip), vehicle: Klucel (hydroxypropylcellulose) (HPC) 104 % of control | dose: 400.0 mg/kg/injection, schedule: Q04DX002 (ip), vehicle: Klucel (hydroxypropylcellulose) (HPC) 93 % of control

Cc1ccc(S(=O)(=O)N/N=C/Cc2ccccc2)cc1
inactive: dose: 100.0 mg/kg/injection, schedule: Q04DX002 (ip), vehicle: gum acacia 100 % of control | dose: 200.0 mg/kg/injection, schedule: Q04DX002 (ip), vehicle: gum acacia 100 % of control | dose: 400.0 mg/kg/injection, schedule: Q04DX002 (ip), vehicle: gum acacia 100 % of control

Cc1cc(N(CCO)Cc2ccccc2)nc2ccccc12
inactive: dose: 75.0 mg/kg/injection, schedule: Q01DX001 (ip), vehicle: saline 102 % of control

C[CH2][Sn]([I])([CH2]C)[CH2]C
inactive: dose: 1.56 mg/kg/injection, schedule: Q01DX009 (ip), vehicle: saline 92 % of control | dose: 3.13 mg/kg/injection, schedule: Q01DX009 (ip), vehicle: saline 94 % of control | dose: 6.25 mg/kg/injection, schedule: Q01DX009 (ip), vehicle: saline 89 % of control | dose: 25.0 mg/kg/injection, schedule: Q04DX002 (ip), vehicle: gum acacia 87 % of control

Oc1ccc(/C=N/Nc2nc3ccccc3s2)c(O)c1
inactive: dose: 222.0 mg/kg/injection, schedule: Q01DX Z (ip), vehicle: methylcellulose (MC) 88 % of control | dose: 333.0 mg/kg/injection, schedule: Q01DX Z (ip), vehicle: methylcellulose (MC) 91 % of control | dose: 500.0 mg/kg/injection, schedule: Q01DX Z (ip), vehicle: methylcellulose (MC) 94 % of control
